Legend:
Assay type in all cases: in vivo, human
[1] = test system: patient who had Parkinson's Disease and severe dyskinesia; assay: Treatment of a Parkinson's Disease patient with severe dyskinesia with sildenafil (Example I); settings: one patient
Description: A patient who had Parkinson's Disease for twelve years and who suffered from severe dyskinesia affecting all their extremities and their head and neck for five years was treated with the method for decreasing neurologic symptomatology according to the present invention. […] The patient was initially treated with 50 mg of sildenafil per day.

[2] = test system: patients with Parkinson's Disease and dyskinesias; assay: Treatment of seven patients with Parkinson's Disease and dyskinesias with sildenafil (Example III)
Description: Seven additional patients with Parkinson's Disease and dyskinesias were treated with sildenafil at a dose of 25 mg per day in addition to their usual Parkinson's Disease medications. The patents were all Caucasian and ranged in age from between 55 to 70 years. Four of the patients were men and three were women.

[3] = test system: patient who had Parkinson's Disease with tremor at rest and gait disturbance; assay: Treatment of a Parkinson's Disease patient with tremor at rest and gait disturbance with sildenafil (Example II); settings: one patient
Description: A patient who had Parkinson's Disease for fifteen years and who suffered from tremor at rest and gait disturbance was treated with the method for decreasing neurologic symptomatology according to the present invention. […] The patient was initially treated with 25 mg of sildenafil per day.

[4] = 25 mg sildenafil per day, after five months of treatment, on levodopa

For `CCCc1nn(C)c2c(=O)[nH]c(-c3cc(S(=O)(=O)N4CCN(C)CC4)ccc3OCC)nc12` [sildenafil], which dyskinesias during treatment ([1]; 50 mg sildenafil per day initially, on levodopa) is on record?
Its dyskinesias during treatment is “significantly reduced”.

What about the “signs and symptoms of Parkinson's Disease” value ([1]; after more than one year of treatment, sildenafil decreased to 25 mg, levodopa 300-400 mg per day) of the same compound?
The value was “significantly improved”.

What about the “patients reporting facial flushing” value ([2]; 25 mg per day) of the same compound?
Its value is “one”.

What about the “patients with any significant side effects of sildenafil treatment” value ([2]; 25 mg per day) of the same compound?
The value was “None”.

What about the “patients with any worsening of their Parkinson's Disease symptoms” value ([2]; 25 mg per day) of the same compound?
Its value is “None”.

And the “patients with significant improvement in their dyskinesias” value ([2]; 25 mg per day in addition to usual Parkinson's Disease medications)?
Its value is “Five of the seven”.

And the gait disturbance [3, 4]?
The gait disturbance was “improved significantly”.

And the tremor [3, 4]?
Its tremor is “ceased”.

What about the “signs and symptoms of Parkinson's Disease” value ([3]; after more than seven months of treatment, sildenafil 25 mg three times per day, levodopa 250 mg per day) of the same compound?
The value was “significantly improved”.

From US6380267B1, “Composition and method for decreasing neurologic symptomatology” (priority 1999, dated 2002)
